The values below come from US20240226054A9, “AGENTS AND METHODS FOR PREVENTING AND TREATING SKELETAL MUSCLE DISEASES” (The Regents Of the University of California, priority 2022, published 2024).

Entries after “also recorded” stand apart in the source; their conditions may differ. Read-outs that look alike come from different tables or passages of the source. A value given as a limit tells only on which side of the number the result lay.

For data set [1], the system named is soleus muscle from the Nav1.4-R669H mouse. The format is cell-based. On the procedure:
(§1) Mouse Model of HypoPP. Knock-in mutant mouse models of HypoPP were previously generated; Type 1 with a missense mutation of the Cav1.1 calcium channel (Cacnals p.R528H) and Type 2 with a missense mutation of the Nav1.4 sodium channel (Scn4a p.R663H) homologous to the p.R669H missense mutation in patients with HypoPP Type 2. Mutant mice have a robust HypoPP phenotype with loss of force and paradoxical depolarization of skeletal muscle in response to a challenge in low extracellular [K^+] (<3 mM) or to intravenous administration of insulin plus glucose.
Ex vivo Contraction Studies. The outcome measure for susceptibility to HypoPP was the peak isometric force of the soleus muscle, in response to a tetanic stimulation, as previously described. In brief, after euthanizing the animal, the extensor digitorum longus (EDL) muscle or the soleus muscle was dissected free and suspended in a tissue bath held at 37° C. […] Muscles were suspended in a bicarbonate-buffered bath that was bubbled continuously with 5% CO2/95% 02 to maintain a pH of 7.4. The standard bath consisted of (in mM): 118 NaCl, 4.75 KCl, 1.18 MgSO4, 2.54 CaCl2), 1.18 NaH2PO4, 10 glucose, and 24.8 NaHCO3. The low-K^+ solution was identical, except for the reduction of KCl to 2 mM by replacement with NaCl. The osmolality of all solutions was 290 mOsm. Retigabine (gift from Prof. M. Taglialatela, Univ. […] The Kv7 inhibitor, XE991 (Sigma-Aldrich), was prepared in as a 100 mM DMSO stock solution and applied to muscle in a […] bath solution.
Electrical stimulation was applied by a pair of platinum wires, oriented perpendicular to the long axis of the soleus muscle. Suprathreshold stimulation (80 mA) was applied as a tetanic burst (40 pulses, 0.4 msec, at 100 Hz), under computer control. All bath solutions contained 0.25 mM D-tubocurarine (Sigma-Aldrich) to prevent any contribution to muscle excitation from motor nerve endings. Muscle force was measured with a stiff strain gain (Forte 25, World Precision Instruments) and digitally sampled at 5 KHz. Muscle contractility was monitored by measuring the peak isometric force every two minutes, and test solutions were applied by complete exchange of the bath solution.
The efficacy of potassium channel openers to prevent the loss of force in HypoPP muscle was assessed by measuring isometric contractions, ex vivo, in both control (4.7 mM) and low extracellular [K^+] (2.0 mM). The HypoPP phenotype is shown for the drug-free responses of the soleus muscle from an Nav1.4-R669H mouse in the left panel of FIG. 1A. The peak isometric force during the tetanic contraction (100 Hz stimulation) was initially 11.7 gm in control [K^+], and then decreased to 7.6 gm (35% decrease) after 4 min. in 2 mM [K^+]. The loss of force is reversible, upon return to 4.7 mM [K^+] (e.g., see FIG. 1B).
A method to quantify the extent of protection from loss of force by retigabine is illustrated in FIG. 2. This example was selected to illustrate the maximum variability in the extent of protection for the oscillations of soleus muscle force within a single trial (compare the responses at 24 min to those at 40 min.). […] The relative protection was calculated from the responses for each pair of soleus muscles from the same mouse serving as an internal control. In almost every trial (22 out of 24), two clear minima occurred during the 30 min. low-K^+ challenge. The relative protection for the retigabine response, defined as 1−(force loss in retigabine)/(force loss in control) was calculated for each of the two minima, and the average value was used as the quantitative estimate for the retigabine protection in that trial. Each soleus muscle was used for only a single trial (i.e. control or retigabine) because cumulative effects and run-down may occur if this long protocol (typically 70 min.) was repeated.

For data set [2], the system named is human HypoPP muscle. The following applies: 100 mM pinacidil; cited from earlier work.
Data set [3] concerns the target Kv7.1 (Homo sapiens, UniProt P51787). As to conditions: cited from earlier work.
For data set [4], the system named is pharmacological model of Andersen-Tawil Syndrome (barium blocks Kir potassium channels). Kind of data set: Low K challenge in pharmacological model of Andersen-Tawil Syndrome (50 μM barium). The format is cell-based. As to conditions: pre-administration of 10 μM retigabine. As to the method: A pharmacological model of Andersen-Tawil Syndrome (ATS) is created, in vitro, with a low concentration of barium (50 μM), which blocks Kir potassium channels. Kir2.1 is deficient from loss of function mutations of the KCNJ2 gene in ATS.

Data set [5] concerns mouse muscle (mouse models of myotonia). The following applies: cited from earlier work.
Data set [6] relates to rat. As to conditions: 30 mg/kg retigabine; cited from earlier work.
Data set [7] relates to EDL fibers from the Nav1.4-R669H mouse. Kind of data set: Membrane potential measurements (resting potential, microelectrode impalement). The format is cell-based. As to the method:
Membrane Potential Measurements. The membrane potential was recorded by impalement of superficial fibers from an ex vivo whole mount of the EDL muscle. Long-duration stable recording of the resting potential was achieved by using an orthogonal approach to the fiber with fine-tipped microelectrodes (resistance of 15-20 MW, filled with 3 M KCl). The bath solution was the same as that used for the ex vivo contraction studies, continuously bubbled with 5% CO2/95% O2, with a flow rate of ˜3 ml/min of the 0.3 ml recording chamber.
The impairment of contraction during an episode of HypoPP is caused by sustained depolarization, which inactivates sodium channels and reduces muscle fiber excitability. In HypoPP, ictal depolarization of the resting potential (Vrest) paradoxically occurs in low K^+ that would normally hyperpolarize the membrane from a negative shift of the K^+ Nernst potential (EK). It was tested whether retigabine prevents or reverses this paradoxical depolarization of HypoPP fibers exposed to low K^+. […] Reduction of K^+ to 2 mM or even 1 mM caused hyperpolarization of WT fibers, as expected from the negative shift of EK (FIG. 5A, gray shaded regions). At an extremely low K^+ of 0.5 mM, even WT fibers paradoxically depolarized (magenta region) as previously described. For EDL fibers from the Nav1.4-R669H mouse, the more modest K^+ reductions to 2 mM or 1 mM elicited paradoxical depolarization, which is the membrane potential equivalent of ictal HypoPP. […] These observations support the view that the beneficial effects of retigabine occur by a stabilizing effect on the normally polarized value of Vrest.

In data set [8] the test system is soleus muscle obtained from the knock-in mutant mouse model of HyperPP. Kind of data set: In vitro contraction test, high K challenge, HyperPP soleus muscle. The format is cell-based. On the procedure:
The two paired muscles (left and right) were tested in separate organ baths. […] At 40 min into the study, a high K challenge was performed by exchanging the 4.7 mM K+ bath with one containing 10 mM K+.

Data set [9] concerns EDL muscle from the Cav1.1-R528H mouse. Kind of data set: Ex vivo contraction test, low-K+ challenge, HypoPP EDL muscle. The format is cell-based. On the procedure:
as §1
Ex vivo Contraction Studies. The outcome measure for susceptibility to HypoPP was the peak isometric force of the soleus muscle, in response to a tetanic stimulation, as previously described. In brief, after euthanizing the animal, the extensor digitorum longus (EDL) muscle or the soleus muscle was dissected free and suspended in a tissue bath held at 37° C. […] Muscles were suspended in a bicarbonate-buffered bath that was bubbled continuously with 5% CO2/95% 02 to maintain a pH of 7.4. The standard bath consisted of (in mM): 118 NaCl, 4.75 KCl, 1.18 MgSO4, 2.54 CaCl2), 1.18 NaH2PO4, 10 glucose, and 24.8 NaHCO3. […]
Electrical stimulation was applied by a pair of platinum wires, oriented perpendicular to the long axis of the soleus muscle. […] Muscle force was measured with a stiff strain gain (Forte 25, World Precision Instruments) and digitally sampled at 5 KHz. Muscle contractility was monitored by measuring the peak isometric force every two minutes, and test solutions were applied by complete exchange of the bath solution.
A method to quantify the extent of protection from loss of force by retigabine is illustrated in FIG. 2. […] The relative protection was calculated from the responses for each pair of soleus muscles from the same mouse serving as an internal control. […] The relative protection for the retigabine response, defined as 1−(force loss in retigabine)/(force loss in control) was calculated for each of the two minima, and the average value was used as the quantitative estimate for the retigabine protection in that trial. […]

The conditions of data set [10]: chronic use as antiepileptic, cited from earlier work.
The subject of data set [11] is mouse. The following applies: 30 mg/kg retigabine; cited from earlier work.
The conditions of data set [12]: cited from earlier work.

Sequence of Kv7.1 (P51787 whole entry): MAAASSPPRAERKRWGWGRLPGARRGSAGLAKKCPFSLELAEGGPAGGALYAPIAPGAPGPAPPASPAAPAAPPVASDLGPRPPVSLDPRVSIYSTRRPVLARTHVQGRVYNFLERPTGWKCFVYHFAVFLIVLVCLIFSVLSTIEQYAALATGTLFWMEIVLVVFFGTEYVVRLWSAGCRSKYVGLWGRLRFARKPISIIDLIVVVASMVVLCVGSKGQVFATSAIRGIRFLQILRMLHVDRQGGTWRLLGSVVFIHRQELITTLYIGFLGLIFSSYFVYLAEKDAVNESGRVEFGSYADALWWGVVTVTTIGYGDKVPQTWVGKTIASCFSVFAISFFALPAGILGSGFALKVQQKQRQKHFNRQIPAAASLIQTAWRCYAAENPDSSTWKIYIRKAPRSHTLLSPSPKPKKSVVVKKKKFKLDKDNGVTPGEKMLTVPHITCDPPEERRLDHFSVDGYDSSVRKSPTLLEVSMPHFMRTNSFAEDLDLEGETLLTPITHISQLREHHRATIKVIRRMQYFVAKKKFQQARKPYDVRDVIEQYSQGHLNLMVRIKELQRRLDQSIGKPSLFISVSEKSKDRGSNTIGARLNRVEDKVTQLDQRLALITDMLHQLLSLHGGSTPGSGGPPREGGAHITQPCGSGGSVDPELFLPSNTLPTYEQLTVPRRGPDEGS

`CC(N/C(=N\C#N)Nc1ccncc1)C(C)(C)C` (centres unmarked) [pinacidil]: in [1] (pinacidil pre-treatment), the “protection from loss of force in a low-K+ challenge” value was “protects HypoPP muscle from a loss of force”. Besides, the “protection against loss of force” value in [2] is given as “protect against loss of force”.

`CCOC(=O)Nc1ccc(NCc2ccc(F)cc2)cc1N` [retigabine, ethyl [2-amino-4-[[(4-fluorophenyl)methyl]amino]phenyl]carbamate]: the “protection from low-K+ induced loss of force” value in [1] (1 μM retigabine pre-treatment) is “substantial protection”; in data set [1] (10 μM retigabine pre-treatment, K+ 4.7 mM to 2 mM) it was “completely suppressed any detectable loss of force”. Further, in data set [1] (2 μM retigabine pre-treatment), the “loss of peak force during 30 min challenge with 2 mM K+” value is on record as “markedly attenuated the loss of peak force”. For the same compound, in [1] (10 μM retigabine applied during 2 mM K+), the “trials with enhanced recovery” value is reported as 5 of 6. In addition, the “relative peak force, sustained value after recovery” value in data set [1] (10 μM retigabine in 2 mM K+, soleus) is recorded as 0.83; in [9] (10 μM retigabine in 2 mM K+, EDL), 0.83. For the same compound, the “relative force in the 2 mM [K+] challenge” value in data set [1] (10 μM retigabine pre-treatment, representative responses FIG. 1B) is recorded as > 0.85. Further, in [1] (10 μM retigabine, still in 2 mM K+ bath, n=3), the “improved level of tetanic force in retigabine, of baseline” value turned out to be 83.2%. For the same compound, the “relative force before the low-K+ challenge on addition of retigabine” value is on record as “not affected” in data set [1] (0.1 to 20 mM, Nav1.4-R669H soleus) and “not affected” in [9] (0.1 to 20 mM, Cav1.1-R528H EDL). Moreover, the “baseline force in 4.7 mM K+” value in data set [1] (bath containing 10 μM retigabine) is “unchanged”. Further, in data set [1] (up to 20 μM retigabine, 400 msec tetanic contraction every two minutes for two hrs), the “impairment of peak isometric force” value is recorded as “no impairment”. Also, the “sensitivity of Kv7.1 to retigabine relative to Kv7.2-Kv7.5 (fold less sensitive)” value in data set [3] was 100 fold. Also, in [4], the “prevention of loss of muscle force with a low K challenge (2 mM)” value was “effective a preventing the loss of muscle force”. For the same compound, the “fiber input resistance, resting potential or action potential properties (current-clamp)” value in data set [5] (20 mM retigabine) was “did not detect a change”. The “reduction of ex vivo tetanic force” value in [5] (20 or 30 mM retigabine) is listed as “did not report a reduction”. The “after-discharges in mouse models of myotonia” value in data set [5] (low-dose retigabine) was “suppresses after-discharges”. In addition, the “force with tetanic contractions lasting seconds” value in [6] and in data set [11] was “loss of force” each time. Also, the “Vrest of normally polarized muscle fibers” value in data set [7] (4.7 K+, retigabine added) is “does not affect Vrest”. The “resting potential of paradoxically depolarized HypoPP fibers (rescue)” value in [7] (retigabine added while low K+ unchanged) is given as “repolarized to the normal Vrest; also recorded: induced fiber repolarization”. For the same compound, the “paradoxical depolarization of HypoPP fibers during low K+ challenge (protection)” value in data set [7] (retigabine applied before low K+ (1.0 or 2.0 mM)) is “prevented the paradoxical depolarization”. Also, in data set [8] (10 μM retigabine pre-treatment, 10 mM K+ challenge), the “attenuation of the loss of force” value is on record as “about 50%”. Moreover, the “maximal force after retigabine before challenge (relative)” value in data set [8] (10 μM retigabine, 4.7 mM K+) is recorded as “about 1.0”. Moreover, the “prevention of loss of force in HyperPP model” value in data set [8] (retigabine (10 μM)) was “partially effective”. Moreover, the “recovery of force on return of bath K+ to 4.7 mM” value in data set [8] (retigabine exposed muscle) is on record as “full recovery of force”. Also, the “recovery from on-going loss of force in low K+” value in data set [9] (10 μM retigabine, vs contralateral control) is given as “Rescue; also recorded: induced a recovery of relative peak force”. The “side effects leading to discontinuation” value is “skin discoloration” in data set [10]; “skin discoloration and eye abnormalities” in data set [10] (listed as Retigabine). For the same compound, the “protein binding (assumed)” value in data set [12] (assumption for unbound fraction) is recorded as 80%. Also, the maximum concentration (Cmax) in data set [12] (single 100 mg oral dose) is 390 ng/mL. In addition, the half-life in data set [12] (single 100 mg oral dose) was 8 h.

As for `Cc1cc(N2CCc3cc(F)ccc3C2)cc(C)c1NC(=O)CC(C)(C)C` [XEN1101, N-[4-(6-fluoro-3,4-dihydro-1H-isoquinolin-2-yl)-2,6-dimethylphenyl]-3,3-dimethylbutanamide], the “increase in baseline force” value in data set [1] (XEN1101 10 μM at 10 min) amounted to 20%.

Usually Cmax stands for the peak of the concentration-time curve. Broadly, the half-life is how long it takes for the measured level to halve.
